For one assay, the system named is Microbacterium otitidis. The experiment in a line: In vitro MIC by agar and broth dilution methods (NCCLS M7-A4), clinical isolates. The assay is classed as cell-based. The method, then:
(§1) The activity levels were determined as MIC (minimum inhibitory concentration) values. In order to compare the activity of the compounds of the present invention to other antibiotics, MIC values for representatives quinolones, aminoglycosides, β-lactams and other types of antibiotics were also determined. […] The MCC numbers (e.g., “MCC 10647”) represent separate clinical isolates of the two Microbacterium species tested.
(Dilution methods test growth across graded concentrations, often in twofold steps.)

The test system of the next assay is Microbacterium alconae. Described as above. The assay is classed as cell-based. The protocol: as §1
Assay [1] deals with S. aureus/quinolone resistant. The assay is described as follows: MIC90 against bacteria associated with otic, ophthalmic and nasal infections. The class given is cell-based. From the text:
(§2) The concentrations of the antibiotics of formula (I) in the compositions of the present invention will vary depending on the intended use of the compositions (e.g., treatment of existing infections or prevention of post-surgical infections), and the relative antimicrobial activity of the specific antibiotic selected. The antimicrobial activity of antibiotics is generally expressed as the minimum concentration required to inhibit the growth of a specified pathogen. This concentration is also referred to as the “minimum inhibitory concentration” or “MIC”. The term “MIC90” refers to the minimum concentration of antibiotic required to inhibit the growth of ninety percent (90%) of the strains of a species. The concentration of an antibiotic required to totally kill a specified bacteria is referred to as the “minimum bactericidal concentration” or “MBC”.

A further assay has as its system P. aeruginosa. The description is as above. The class given is cell-based.
From the text: as §2

The test system of assay [2] is S. epidermidis/methicillin sensitive. The description is as above. The assay is classed as cell-based.
From the text: as §2

Assay [3] concerns S. pneumoniae/penicillin sensitive. The description is as above. The class given is cell-based.
From the text: as §2

For assay [4], the system named is H. influenzae/β-lactamase positive. The description is as above. The assay is classed as cell-based.
From the text: as §2

In assay [5] the test system is S. pneumoniae/penicillin resistant. The assay is described as above. The class given is cell-based.
From the text: as §2

Assay [6] relates to H influenzae/β-lactamase negative. The assay is described as above. The assay is classed as cell-based.
From the text: as §2

For assay [7], the system named is S. aureus/methicillin resistant. The assay is described as above. The assay is classed as cell-based.
From the text: as §2

Assay [8] has as its system S. aureus/methicillin sensitive. Described as above. The class given is cell-based.
From the text: as §2

Assay [9] has as its system S. epidermidis/methicillin resistant. The description is as above. The assay is classed as cell-based.
From the text: as §2

The test system of the next assay is M. otitidis. The description is as above. The assay is classed as cell-based, Microbacterium otitidis.
From the text: as §2

Another assay deals with M. alconae. The description is as above. The assay is classed as cell-based, Microbacterium alconae.
From the text: as §2

[10] abbreviates: Microbacterium otitidis clinical isolate MCC 10647.
Setting [11] is: Microbacterium otitidis clinical isolate MCC 10810.
[12] abbreviates: Microbacterium otitidis clinical isolate MCC 10990.
Setting [13] is: Microbacterium otitidis clinical isolate MCC 11495.
Setting [14] is: Microbacterium otitidis clinical isolate MCC 11676.
The mark [15] stands for this setting: Microbacterium alconae clinical isolate MCC 11316.
Setting [16] is: Microbacterium alconae clinical isolate MCC 11558.
Setting [17] is: Microbacterium alconae clinical isolate MCC 11639.
The mark [18] stands for this setting: Microbacterium alconae clinical isolate MCC 11653.
Where [19] appears, read: Microbacterium alconae clinical isolate MCC 11699.
Setting [20] is: Staphylococcus aureus, read-out: MIC90.
Setting [21] is: Pseudomonas aeruginosa, read-out: MIC90.
[22] abbreviates: Staphylococcus epidermidis, read-out: MIC90.
[23] abbreviates: Streptococcus pneumoniae, read-out: MIC90.
[24] abbreviates: Haemophilus influenzae, read-out: MIC90.

≈ marks a conversion by molar mass, not a printed value. Like-named read-outs stand apart in the source and are kept apart here.

As to Gentamicin, the “minimum inhibitory concentration (MIC)” value amounted to 8.0 micrograms per milliliter in the assay on Microbacterium otitidis (setting [10]); 4.0 micrograms per milliliter with Microbacterium otitidis (setting [11]); 4.0 micrograms per milliliter in the assay on Microbacterium otitidis (setting [12]); 16 micrograms per milliliter with Microbacterium otitidis (setting [13]); 4.0 micrograms per milliliter in the assay on Microbacterium otitidis (setting [14]); 2.0 micrograms per milliliter in the assay with Microbacterium alconae (setting [15]). The “minimum inhibitory concentration (MIC)” value in the assay on Microbacterium alconae (setting [16]), in the assay with Microbacterium alconae (setting [17]), in the assay on Microbacterium alconae (setting [18]) and in the assay with Microbacterium alconae (setting [19]) was 2.0 micrograms per milliliter each time.
For the compound Moxifloxacin, the MIC90 is reported as 4.0 micrograms per milliliter in assay [1]; 8.0 micrograms per milliliter with P. aeruginosa; 0.25 micrograms per milliliter in [2]; 0.25 micrograms per milliliter in assay [3]; 0.06 micrograms per milliliter in assay [4]; 0.25 micrograms per milliliter in assay [5]. Also, the MIC90 in assay [6] is 0.06 micrograms per milliliter; in [7] it was 4.0 micrograms per milliliter; in assay [8], 0.13 micrograms per milliliter; in assay [9] it was 4.0 micrograms per milliliter; in the assay on M. otitidis it was 2.0 micrograms per milliliter; against M. alconae it was 0.25 micrograms per milliliter.
For the compound Neomycin, the “minimum inhibitory concentration (MIC)” value was determined as 8.0 micrograms per milliliter in the assay with Microbacterium otitidis (setting [10]); 2.0 micrograms per milliliter with Microbacterium otitidis (setting [11]); 2.0 micrograms per milliliter in the assay with Microbacterium otitidis (setting [12]); 8.0 micrograms per milliliter in the assay with Microbacterium otitidis (setting [13]); 2.0 micrograms per milliliter with Microbacterium otitidis (setting [14]); 1.0 micrograms per milliliter in the assay on Microbacterium alconae (setting [15]). In addition, the “minimum inhibitory concentration (MIC)” value with Microbacterium alconae (setting [16]), in the assay with Microbacterium alconae (setting [17]), with Microbacterium alconae (setting [18]) and with Microbacterium alconae (setting [19]) was 1.0 micrograms per milliliter in each case.
Regarding Grepafloxacin, the MIC90 in [1] was found to be 0.13 micrograms per milliliter; against P. aeruginosa it was 8.0 micrograms per milliliter; in assay [2] it was 0.13 micrograms per milliliter; in assay [3], 0.25 micrograms per milliliter; in assay [4], 0.008 micrograms per milliliter; in assay [5], 0.25 micrograms per milliliter. Besides, the MIC90 in assay [6] is listed as 0.008 micrograms per milliliter; in [7], 0.13 micrograms per milliliter; in [8] it was 0.13 micrograms per milliliter; in assay [9], 0.13 micrograms per milliliter.
For Polymyxin B, the “minimum inhibitory concentration (MIC)” value with Microbacterium otitidis (setting [11]) stood at 260 micrograms per milliliter; in the assay with Microbacterium otitidis (setting [12]), 260 micrograms per milliliter; in the assay with Microbacterium otitidis (setting [14]) it was 16 micrograms per milliliter; with Microbacterium alconae (setting [17]), 16 micrograms per milliliter; in the assay with Microbacterium alconae (setting [18]) it was 16 micrograms per milliliter; in the assay with Microbacterium alconae (setting [19]) it was 16 micrograms per milliliter.
As for `N[C@@H]1[C@H]2CN(c3nc4c(cc3F)c(=O)c(C(=O)O)cn4-c3ccc(F)cc3F)C[C@@H]12` [Trovafloxacin], the MIC90 in [1] (setting [20]) was 4 µg/mL (≈ 9.61 µM); with P. aeruginosa (setting [21]) it was 2 µg/mL (≈ 4.8 µM); in assay [2] (setting [22]), 0.06 µg/mL (≈ 0.144 µM); in assay [3] (setting [23]), 0.25 µg/mL (≈ 0.6 µM); in [4] (setting [24]), 0.03 µg/mL (≈ 0.0721 µM); in assay [5] (setting [23]), 0.25 µg/mL (≈ 0.6 µM). Besides, the MIC90 was 0.03 µg/mL (≈ 0.0721 µM) in assay [6] (setting [24]), 2 µg/mL (≈ 4.8 µM) in assay [7] (setting [20]), 0.03 µg/mL (≈ 0.0721 µM) in [8] (setting [20]) and 4 µg/mL (≈ 9.61 µM) in [9] (setting [22]).
For the compound `COc1c(N2CCNC(C)C2)c(F)cc2c(=O)c(C(=O)O)cn(C3CC3)c12` (centres unmarked) [Gatifloxacin], the MIC90 in assay [1] (setting [20]) came to 8 µg/mL (≈ 21.3 µM); in the assay on P. aeruginosa (setting [21]) it was 2 µg/mL (≈ 5.33 µM); in [2] (setting [22]), 0.5 µg/mL (≈ 1.33 µM); in assay [3] (setting [23]), 0.25 µg/mL (≈ 0.666 µM); in assay [4] (setting [24]) it was 0.06 µg/mL (≈ 0.16 µM); in [5] (setting [23]) it was 0.25 µg/mL (≈ 0.666 µM). Besides, the MIC90 was 0.06 µg/mL (≈ 0.16 µM) in assay [6] (setting [24]), 8 µg/mL (≈ 21.3 µM) in [7] (setting [20]), 0.25 µg/mL (≈ 0.666 µM) in assay [8] (setting [20]) and 4 µg/mL (≈ 10.7 µM) in [9] (setting [22]).

Source of the values: US6740664B2, “Methods for treating otic and ophthalmic infections” (Alcon, Inc., priority 1998, dated 2004).
